From patent publication US9464113B2, “Anti-heparan sulfate peptides that block herpes simplex virus infection in vivo” (The Board of Trustees of the University of Illinois, priority 2010, dated 2016)
No end group written: not given here.

Columns and labels:
[1] = tested on: GFP-expressing HHV-8 (rHHV-8.152); experiment: HHV-8 infection assay in HCjE cells; assay type: cell-based, human herpesvirus-8; conditions: for fluorescence from GFP virus replication (microscopy): fluorescent microscope (FIG. 5D); for GFP-expression of HHV-8 (RFU): 48 h, fluorescence reader (FIG. 5C)
Protocol: HCjE cells grown in chamber slides (Labteck) or in a 96 well plate were pre-treated with G1, G2, or control peptides for 60 min at room temperature followed by inoculation with recombinant rHHV-8.152, expressing the green fluorescent protein (GFP). Viera et al., J. Virol. 72:5182-5188 (2000). 48-hr post-infection, GFP-positive cells were visualized under microscope (Zeiss Axioverst 100M). HHV-8 infection was determined as relative fluorescence units (RFU) using GENios Pro plate reader (TECAN) at 480-nm excitation and 520-nm emission frequencies. Five measurements of negative control, positive control, and the test samples were performed. Data were expressed as mean±SD.
The ability to block HHV-8 infection was examined in human conjunctival epithelial (HCjE) cells, a natural target for HHV-8 infection. Human conjunctival (HCjE) cells were pre-incubated with G1, G2 or control peptide (Cp) were infected with HHV-8 virions for 48 h at 37° C. After incubation the cells were washed thoroughly to remove unbound viruses. GFP-expression of HHV-8 was quantitated by determining relative fluorescence units (RFU) using a 96-well fluorescence reader (TECAN). Emission of fluorescence indicates virus infection. […] This was confirmed by examination of individual cells by fluorescence microscopy.
Viral replication in HCjE cells was visualized under fluorescent microscope (Zeiss Axiovert 100) in cells that were pretreated with G1, G2 or Cp, as described above (FIG. 5D). Asterisks indicate significant difference from controls and/or treatments (P<0.05, t test) and error bars represent SD. […] G1 may have some activity but the virus can possibly overcome it easily.

HSV-1 (KOS) gL86 = experiment: HSV-1 entry assay in CHO-K1 cells expressing gD receptors (3-OST-3, nectin-1, HVEM); assay type: cell-based, herpes simplex virus type-1; conditions: CHO-K1 cells expressing one of three gD receptors; dose-dependent
Protocol: HSV-1 entry was assayed as described in Shukla et al., Cell 99:13-22 (1999). CHO-K1 cells were grown in 6-well plates to subconfluence and then transfected with 2.5 μg of expression plasmids for gD receptors nectin-1 (pBG38), HVEM (pBec10), 3-OST-3 isoform (pDS43), or pCDNA3.1 (empty vector) using LipofectAMINE (Gibco/BRL). At 16 h post-transfection, the cells were replated into 96-well dishes for pre-incubation with peptides at different concentrations for 60 min at room temperature. In parallel, natural target cells (HeLa, CF, and RPE) were also pre-treated with the peptides for the same duration. In all cases, unbound peptides were removed after washing 3× with PBS. Thereafter, cells were infected for 6 h with a recombinant virus, HSV-1 (KOS) gL86, at multiple plaque forming units (PFUs) and β-galactosidase assays were performed using either a soluble substrate o-nitrophenyl-β-D-galactopyranoside (ONPG at 3.0 mg/ml; ImmunoPure, Pierce) or X-gal (Sigma). For the soluble substrate, the enzymatic activity was measured at 410 nm using a micro-plate reader (Spectra Max 190, Molecular Devices, Sunnyvale, Calif.). For the X-gal assay, cells were fixed (2% formaldehyde and 0.2% glutaraldehyde) and permeabilized (2 mM MgCl2, 0.01% deoxycholate, and 0.02% nonidet NP-40 (Sigma)). 1 ml of β-galactosidase reagent (1.0 mg/ml X-gal in ferricyanide buffer) was added to each well and incubated at 37° C. for 90 min before the cells were examined using bright field microscopy under the 20× objectives of the inverted microscope (Zeiss Axiovert 100 M).
Peptide sequences from individual plaques were deduced by determining the nucleotide sequences of the portion of the phage genome that encoded them. The predicted peptide sequences of about 200 plaques were determined and sorted into two groups on the basis of their targets. […] After 6 hr, the cells were washed, permeabilized, and incubated with ONPG substrate (3.0 mg/ml) for quantitation of β-galactosidase activity expressed from the input viral genome. The enzymatic activity was measured at an optical density of 410 nm (OD410). […]

HSV-1 (KOS) = experiment: Mouse cornea model of HSV-1 infection (immunohistochemistry); assay type: in vivo, BALB/c mice
Protocol: BALB/c mice with pre-scarred corneal upper surface were treated with PBS-based eye drops containing 0.5 mM G1, G2, or control peptide followed by inoculation of HSV-1 (KOS). Mice were sacrificed after 4 and 7 days for HSV-1 detection. Immunohistochemistry was performed as described by Akhtar et al., Invest. Ophthalmol. Vis. Sci. 49:4026-4035 (2008). Briefly, tissue sections were hydrated with distilled water and antigen retrieval was performed using DAKO Target Retrieval Solution 10× concentrate (DAKO, Carpinteria, Calif.). Nonspecific staining was blocked using H2O2 solution for 10 minutes followed by a protein block for 10 minutes. Sections were incubated with HSV-1 gD specific antiserum (1:100 dilution) at room temperature for 1 hr followed by a 40-minute incubation with the secondary antibody (HRP-conjugated goat anti-rabbit IgG, 1:500; Sigma, St. Louis, Mo.). Expression of gD was detected using the DAKO Envision^+ kit. Confocal and differential interference contrast (DIC) image acquisition was conducted with an SB2-AOBS confocal microscope (Leica, Solms, Germany).
Immunohistochemistry was used to locate HSV-1 glycoprotein D (gD) expression in the cornea pre-treated with either a control peptide, G1 or G2 followed by HSV-1 infection. 100 μl of G1, G2, or Cp (control) peptide at 0.5 mM concentration was poured into the mouse cornea as a prophylactic “eye drop” followed by an infection with HSV-1 (KOS) at 10^6 PFU. At 4 or 7 days post infection, immunohistochemistry was performed using anti-HSV-1 gD polyclonal antibody.

[2] = 100 μl eye drop at 0.5 mM before 10^6 PFU, 4 and 7 days post infection

| Sequence | fluorescence from GFP virus replication (microscopy) [1] | blocking of HSV-1 entry (HSV-1 (KOS) gL86) | HSV-1 gD staining in cornea (HSV-1 (KOS); 0.5 mM eye drop, day 4) | corneal inflammation (HSV-1 (KOS); 0.5 mM eye drop, day 4) | HSV-1 staining in cornea (HSV-1 (KOS); 0.5 mM eye drop, day 7) | state of corneal epithelium (HSV-1 (KOS); 0.5 mM eye drop, day 7) | GFP-expression of HHV-8 (RFU) [1] | HSV-1 protein (gD) expression in cornea (HSV-1 (KOS); [2]) | state of corneal epithelium (HSV-1 (KOS); [2]) |
| --- | --- | --- | --- | --- | --- | --- | --- | --- | --- |
| RVCGSIGKEVLG [Cp, reference compound] | fluorescence was more easily seen | did not inhibit HSV-1 entry | significant staining for HSV-1 gD | severe chronic inflammation | gone | damage to the corneal epithelium was still evident | – | – | – |
| MPRRRRIRRRQK [G2, MPRRRRIRRRQK] | did not show fluorescence | able to block HSV-1 entry | – | – | – | – | relatively low GFP-expression | virtually no HSV-1 protein expression was detected | epithelium remained intact |
| LRSRTKIIRIRH [G1, LRSRTKIIRIRH] | fluorescence was more easily seen | able to block HSV-1 entry | – | – | – | – | not found to be statistically significant | virtually no HSV-1 protein expression was detected | epithelium remained intact |
